Assay type in all cases: toxicity, cell-based
One data set relates to Fibroblast. As to the kind of experiment: Incucyte cell viability with human fibroblast. To be noted: 24 h, 10 µM, compound concentration 10 uM.
The test system of a further data set is U2OS. The data set is described as follows: Incucyte cell viability with U2OS. To be noted: human, 24 h, 10 µM, compound concentration 10 uM.
In another data set the test system is HEK-293T. As to the kind of experiment: Incucyte cell viability with HEK293T. To be noted: human, 24 h, 10 µM, compound concentration 10 uM.

Square brackets hold non-standard residues; d marks the D form. Peptide text beside a SMILES is read from it.
Further: unitless GR value; below 1 slowed growth and below 0 cell loss.

As for `COC(=O)[C@@H]1CC2=CC(=O)CC[C@]2(C)[C@@]23O[C@@H]2C[C@@]2(C)[C@@H](CC[C@@]24CCC(=O)O4)[C@H]13` [EPLERENONE], the “Growth Rate” value came to 0.25 with Fibroblast (replicate number 1); 1 in the data set with Fibroblast (replicate number 2); 1 with U2OS (replicate number 1); 0.61 with HEK-293T (replicate number 1); 0.95 in the data set with HEK-293T (replicate number 2).
Take `CCCCCCCCCCCCCCCCNNC(=O)c1cccs1`: the “Growth Rate” value with Fibroblast (replicate number 1) came to 0.8; in the data set with Fibroblast (replicate number 2), 0.19; in the data set with U2OS (replicate number 1), 0.83; in the data set on U2OS (replicate number 2), 1; with HEK-293T (replicate number 1), 0.8; in the data set on HEK-293T (replicate number 2), 1.
In the case of `Cc1cc(Cn2c(=O)n(Cc3cnc(C)s3)c(=O)c3cc(S(=O)(=O)NC4(C)CC4)ccc32)n(C)n1`, the “Growth Rate” value in the data set with Fibroblast (replicate number 1) is 0.47; in the data set on Fibroblast (replicate number 2), 0.68; in the data set on U2OS (replicate number 1) it was 0.64; in the data set on U2OS (replicate number 2), 0.54; with HEK-293T (replicate number 1), 0.6; in the data set on HEK-293T (replicate number 2) it was 0.74.
As to `CCCOc1cc(OCCCCN(C)C)cc(Oc2cc3c(cc2NS(=O)(=O)c2ccc(OC)c(OC)c2)n(C)c(=O)n3C)c1.O=C(O)C(F)(F)F`, the “Growth Rate” value in the data set with Fibroblast (replicate number 1) was determined as 1; in the data set with U2OS (replicate number 1), 0.87; in the data set on U2OS (replicate number 2) it was 1; in the data set with HEK-293T (replicate number 1), 0.59; in the data set with HEK-293T (replicate number 2), 0.72.
As for `CCC(=O)N1CCOc2c(cc(-c3cc(OC)cc(OC)c3)cc2C(=O)N[C@H]2CCCN(C)C2)C1`, the “Growth Rate” value with Fibroblast (replicate number 1) is reported as 0.84; in the data set on Fibroblast (replicate number 2), 0.98; in the data set with U2OS (replicate number 1), 0.42; in the data set on U2OS (replicate number 2) it was 1; in the data set on HEK-293T (replicate number 1), 0.39; in the data set with HEK-293T (replicate number 2), 0.7.
`CC(=O)N[C@@H](CC(=O)O)C(=O)N[C@@H](CCC(=O)O)C(=O)N[C@H](C(=O)N[C@H](C=O)CC(=O)O)C(C)C.O=C(O)C(F)(F)F`: the “Growth Rate” value in the data set on Fibroblast (replicate number 1) is on record as 0.55; with Fibroblast (replicate number 2), 0.22; with U2OS (replicate number 1) it was 1; in the data set with HEK-293T (replicate number 1), 0.74; in the data set with HEK-293T (replicate number 2), 1.
Regarding `O=C(C=Cc1ccc(O)cc1)c1ccc(O)cc1O`, the “Growth Rate” value is on record as 0.64 in the data set with Fibroblast (replicate number 1); 1 in the data set on Fibroblast (replicate number 2); 0.9 in the data set with U2OS (replicate number 1); 0.75 in the data set with U2OS (replicate number 2); 0.72 in the data set on HEK-293T (replicate number 1); 0.82 in the data set with HEK-293T (replicate number 2).
`COCCOCCn1nc2c(c1C)-c1c(Cl)ccc3c1c(C)c(C(=O)O)n3CCCOc1cc(cc3c(F)c(Cl)ccc13)CCc1cc(nn1C)CSC2`: the “Growth Rate” value in the data set on Fibroblast (replicate number 1) is given as -0.35; in the data set on Fibroblast (replicate number 2), -0.82; in the data set with U2OS (replicate number 1), 0.15; in the data set on U2OS (replicate number 2) it was 0.75; in the data set on HEK-293T (replicate number 1), 0.27; in the data set on HEK-293T (replicate number 2), 0.51.
For `Cc1cc(C)c(CNC(=O)c2cc(Cl)c3c(c2C)O[C@@](C)([C@H]2CC[C@H](N(C)C)CC2)O3)c(=O)[nH]1` [VALEMETOSTAT], the “Growth Rate” value is listed as 1 in the data set on Fibroblast (replicate number 1); 0.46 with Fibroblast (replicate number 2); 0.4 with U2OS (replicate number 1); 0.98 in the data set with U2OS (replicate number 2); 0.77 in the data set on HEK-293T (replicate number 1); 0.96 in the data set with HEK-293T (replicate number 2).
On to `CC(C)(CNC(=O)c1cccc(-c2noc(C(F)(F)F)n2)c1)c1coc(-c2ccccc2)n1`, for which the “Growth Rate” value in the data set on Fibroblast (replicate number 1) came to 0.48; in the data set on Fibroblast (replicate number 2), 0.8; in the data set with U2OS (replicate number 1), 1; with HEK-293T (replicate number 1), 0.69; in the data set with HEK-293T (replicate number 2) it was 0.79.
In the case of `CC(=O)N1CCN([C@H]2CCC[C@@H](NC(=O)c3cc4c(F)ccc(C)c4[nH]3)C2)CC1` [EZM-0414], the “Growth Rate” value in the data set with Fibroblast (replicate number 1) was determined as 0.85; in the data set on Fibroblast (replicate number 2) it was 0.56; in the data set with U2OS (replicate number 1), 0.87; with U2OS (replicate number 2) it was 0.93; in the data set with HEK-293T (replicate number 1) it was 0.77; in the data set with HEK-293T (replicate number 2), 0.94.
With `O=C(Nc1ccc2[nH]nc(-c3ccncc3)c2c1)[C@@H]1CCN(CC(=O)N2CCN(c3ccc(-c4ncccn4)cc3)CC2)C1`, the “Growth Rate” value in the data set on Fibroblast (replicate number 1) is listed as 1; in the data set with U2OS (replicate number 1), 0.65; in the data set with U2OS (replicate number 2), 1; with HEK-293T (replicate number 1), -0.08; in the data set on HEK-293T (replicate number 2) it was -0.01.
Turning to `CC(C)(C)c1ccc(CN(C(=O)CN(Cc2c(F)c(F)c(F)c(F)c2F)S(=O)(=O)c2ccc(F)cc2)c2ccc(C(=O)NO)cc2)cc1`, the “Growth Rate” value in the data set with Fibroblast (replicate number 1) is listed as 0.66; with Fibroblast (replicate number 2) it was -0.2; with U2OS (replicate number 1), 0.17; in the data set on U2OS (replicate number 2), 1; in the data set with HEK-293T (replicate number 1), 0.62; with HEK-293T (replicate number 2), 0.53.
On to `COc1cc(O)c2c(c1)/C=C\C[C@H](O)[C@H](O)C(=O)/C=C\C[C@H](C)OC2=O`, for which the “Growth Rate” value in the data set on Fibroblast (replicate number 1) was -0.67; in the data set on Fibroblast (replicate number 2), -0.85; with U2OS (replicate number 1), -0.54; in the data set on U2OS (replicate number 2), -0.35; in the data set on HEK-293T (replicate number 1) it was -0.3; in the data set with HEK-293T (replicate number 2), -0.25.
Regarding `Cc1ccc(NC2=CC(=O)c3sc(C)nc3C2=O)cc1`, the “Growth Rate” value is -0.84 in the data set on Fibroblast (replicate number 1); -0.96 in the data set on Fibroblast (replicate number 2); -0.86 with U2OS (replicate number 1); -0.45 with U2OS (replicate number 2); -0.37 with HEK-293T (replicate number 1); -0.23 in the data set on HEK-293T (replicate number 2).
As for `COc1ccc2c(c1)OC(C)(C)C(c1ccccc1)C2c1ccc(OCCN2CCCC2)cc1` (configuration not stated) [ORMELOXIFENE], the “Growth Rate” value in the data set with Fibroblast (replicate number 1) was 1; with Fibroblast (replicate number 2), 0.9; with U2OS (replicate number 1) it was 1; in the data set on U2OS (replicate number 2) it was 0.75; in the data set on HEK-293T (replicate number 1), 0.93; in the data set with HEK-293T (replicate number 2), 0.92.
Consider `[2H]C([2H])([2H])C1(C([2H])([2H])[2H])Cn2nc(-c3ccc(F)cn3)c(-c3ccnc4[nH]ncc34)c2CO1`, for which the “Growth Rate” value in the data set on Fibroblast (replicate number 1) was 0.73; with Fibroblast (replicate number 2), 1; with U2OS (replicate number 1), 0.32; with U2OS (replicate number 2) it was 0.8; with HEK-293T (replicate number 1), 0.81; in the data set with HEK-293T (replicate number 2), 0.89.
Take `O=C(Nc1c[nH]nc1C(=O)NC1CCNCC1)c1cc(F)cc(F)c1`: the “Growth Rate” value with Fibroblast (replicate number 1) was -0.45; in the data set on Fibroblast (replicate number 2), -0.55; with U2OS (replicate number 1), -0.13; in the data set on U2OS (replicate number 2), 0.19; in the data set with HEK-293T (replicate number 1), 0.15; in the data set on HEK-293T (replicate number 2) it was 0.14.
Turning to `O=C(O)/C(S)=C/c1c[nH]c2ccc(F)cc12`, the “Growth Rate” value is 0.7 in the data set on Fibroblast (replicate number 1); 1 with Fibroblast (replicate number 2); 0.49 in the data set on U2OS (replicate number 1); 1 with U2OS (replicate number 2); 0.73 in the data set on HEK-293T (replicate number 1); 0.83 with HEK-293T (replicate number 2).
On to `NC(=O)c1ccc(Oc2ccc(C(N)=O)cc2)cc1`, for which the “Growth Rate” value with Fibroblast (replicate number 1), in the data set with U2OS (replicate number 1) and in the data set with HEK-293T (replicate number 1) was 1 in each case.
Take `Cc1nn(CC(F)(F)F)cc1Nc1ncc(Br)c(NCc2ccc(S(N)(=O)=O)cc2)n1`: the “Growth Rate” value with Fibroblast (replicate number 1) is on record as 1; in the data set with U2OS (replicate number 1), 1; with U2OS (replicate number 2) it was 0.83; with HEK-293T (replicate number 1) it was 0.53; with HEK-293T (replicate number 2), 1.
Take `O=C(NCC(=O)N1CCCCC1)Nc1ccc2nnsc2c1`: the “Growth Rate” value in the data set with Fibroblast (replicate number 1) is 0.36; in the data set with Fibroblast (replicate number 2) it was -0.42; with U2OS (replicate number 1), 0.93; with HEK-293T (replicate number 1), 0.75; in the data set on HEK-293T (replicate number 2) it was 0.97.
On to `O=C(NO)c1ccc(CN2CCCc3cc(Cl)ccc32)cc1`, for which the “Growth Rate” value is 0.78 with Fibroblast (replicate number 1); -0.22 in the data set on Fibroblast (replicate number 2); 0 in the data set on U2OS (replicate number 1); 0.79 with U2OS (replicate number 2); 0.69 with HEK-293T (replicate number 1); 0.85 in the data set with HEK-293T (replicate number 2).
Regarding `CCn1c(=O)c(C)cn(Cc2nnc(-c3ccc(F)c(OC)c3F)s2)c1=O`, the “Growth Rate” value in the data set with Fibroblast (replicate number 1) stood at 0.35; with Fibroblast (replicate number 2), 1; in the data set on U2OS (replicate number 1), 0.26; in the data set with U2OS (replicate number 2) it was 1; in the data set with HEK-293T (replicate number 1), 0.83; in the data set on HEK-293T (replicate number 2), 0.9.
As to `CC(=O)N[C@@H](C)C(=O)N[C@@H](CCC(=O)O)C(=O)N[C@H](C(=O)N[C@@H](C=O)CC(=O)O)C(C)C` (Ac-AEV[dD]-aldehyde), the “Growth Rate” value with Fibroblast (replicate number 1) is 0.31; in the data set with Fibroblast (replicate number 2), 0.14; with U2OS (replicate number 1) it was 0.88; with U2OS (replicate number 2), 0.76; in the data set on HEK-293T (replicate number 1), 0.78; in the data set on HEK-293T (replicate number 2), 1.
With `CCOC(=O)NCCCC(=O)NCCc1ccccc1`, the “Growth Rate” value in the data set with Fibroblast (replicate number 1) came out at 1; in the data set with U2OS (replicate number 1), 0.48; in the data set on U2OS (replicate number 2), 0.84; in the data set on HEK-293T (replicate number 1), 0.61; in the data set on HEK-293T (replicate number 2) it was 0.8.
`OC1CN=C2c3ccn([C@@H]4O[C@H]([C@H](O)c5ccc(Cl)cc5)[C@@H](O)[C@H]4O)c3N=CN21` (some centres not stated): the “Growth Rate” value in the data set on Fibroblast (replicate number 1) was 1; with Fibroblast (replicate number 2) it was -0.38; in the data set with U2OS (replicate number 1), 1; in the data set on U2OS (replicate number 2) it was 0.79; in the data set with HEK-293T (replicate number 1) it was 1.
In the case of `Nc1ncnc2c1ncn2[C@@H]1O[C@H](C[C@@H](N)CC[C@H](N)C(=O)O)[C@@H](O)[C@H]1O` [SINEFUNGIN], the “Growth Rate” value is 0.66 with Fibroblast (replicate number 1); -0.28 in the data set with Fibroblast (replicate number 2); 0.54 in the data set with U2OS (replicate number 1); 1 with U2OS (replicate number 2); 0.85 with HEK-293T (replicate number 1); 0.88 in the data set with HEK-293T (replicate number 2).
Turning to `COc1cccc(OC)c1S(=O)(=O)Nc1noc2cc(Cn3cccn3)cc(OC)c12`, the “Growth Rate” value in the data set with Fibroblast (replicate number 1) was 0.79; with Fibroblast (replicate number 2), 1; in the data set with U2OS (replicate number 1), 0.39; in the data set on U2OS (replicate number 2), 1; in the data set on HEK-293T (replicate number 1), 0.71; with HEK-293T (replicate number 2), 0.55.

Source of the values: ChEMBL document CHEMBL5724709, “EUbOPEN Chemogenomics Library - IncuCyte” (2024).
